Data published in ChEMBL document CHEMBL5303304, “EUbOPEN Chemogenomics Library - IncuCyte” (2023).

Experiments:
Format in all cases: toxicity, cell-based
HEK-293T = assay: Incucyte cell viability with HEK293T; details: human, 10 µM, compound concentration 10 uM
Fibroblast = assay: Incucyte cell viability with human fibroblast; details: 10 µM, compound concentration 10 uM
U2OS = assay: Incucyte cell viability with U2OS; details: human, 10 µM, compound concentration 10 uM
Further: unitless GR value; below 1 slowed growth and below 0 cell loss.

| SMILES | Growth Rate (HEK-293T; 6 h, replicate number 2) | Growth Rate (Fibroblast; 6 h, replicate number 1) | Growth Rate (Fibroblast; 6 h, replicate number 2) | Growth Rate (Fibroblast; 12 h, replicate number 1) | Growth Rate (Fibroblast; 12 h, replicate number 2) | Growth Rate (Fibroblast; 18 h, replicate number 1) | Growth Rate (Fibroblast; 18 h, replicate number 2) | Growth Rate (Fibroblast; 24 h, replicate number 1) | Growth Rate (Fibroblast; 24 h, replicate number 2) | Growth Rate (U2OS; 0 h, replicate number 1) | Growth Rate (U2OS; 6 h, replicate number 1) | Growth Rate (U2OS; 12 h, replicate number 1) | Growth Rate (U2OS; 24 h, replicate number 1) | Growth Rate (HEK-293T; 0 h, replicate number 1) | Growth Rate (HEK-293T; 18 h, replicate number 2) | Growth Rate (HEK-293T; 24 h, replicate number 1) | Growth Rate (HEK-293T; 12 h, replicate number 2) | Growth Rate (HEK-293T; 24 h, replicate number 2) | Growth Rate (U2OS; 24 h, replicate number 2) | Growth Rate (HEK-293T; 0 h, replicate number 2) | also measured |
| --- | --- | --- | --- | --- | --- | --- | --- | --- | --- | --- | --- | --- | --- | --- | --- | --- | --- | --- | --- | --- | --- |
| CC1CNCCc2c1nc1ccnn1c2N1CC(C(=O)N2CCC(C)(C)C2)C1 (stereo not given) | 0.99 | 0.73 | -0.38 | 0.56 | 0.76 | 0.7 | 0.74 | 0.84 | 0.97 | 0.03 | 0.99 | 0.75 | 0.98 | – | – | – | – | – | – | – | Growth Rate (Fibroblast; 0 h, replicate number 1): -1; Growth Rate (U2OS; 18 h, replicate number 1): 0.86 |
| COc1cc(-c2cn(C)c(=O)c3cnccc23)cc(OC)c1CN(C)C | 0.89 | 0.2 | -0.34 | 0.48 | 0.15 | 0.56 | 0.6 | 0.58 | 0.85 | 0.83 | 0.87 | 0.86 | 0.97 | 0.56 | 0.89 | 0.92 | – | – | – | – | Growth Rate (HEK-293T; 6 h, replicate number 1): 0.78; Growth Rate (HEK-293T; 18 h, replicate number 1): 0.85; Growth Rate (Fibroblast; 0 h, replicate number 1): 0.17; Growth Rate (U2OS; 6 h, replicate number 2): 0.61; Growth Rate (U2OS; 12 h, replicate number 2): 0.85 |
| Cc1ccc(CNc2ncnc3ccc(-c4ccc(CO)o4)cc23)o1 | 0.11 | -1 | – | – | – | – | – | – | – | -0.83 | – | – | – | – | 0.69 | – | 0.71 | 0.79 | 0.86 | – | Growth Rate (Fibroblast; 0 h, replicate number 2): 0.71; Growth Rate (U2OS; 18 h, replicate number 2): 0.94 |
| CCCCC[C@@](C)(O)/C=C/[C@H]1C(=O)CC(O)C1C/C=C\CCCC(=O)O (stereo not given in full) | – | – | -0.92 | 0.71 | 0.2 | – | 0.57 | – | 0.71 | – | 0.49 | – | 0.94 | -0.27 | – | – | 0.96 | – | 1 | 0.17 | – |
| Cn1nccc1Nc1nccc(-c2cc3c(s2)C(C)(C)N(CCN2CCOCC2)C3=O)n1 [TEMUTERKIB] | 0.33 | – | – | -0.93 | – | 0.27 | – | 0.12 | – | -0.62 | 0.47 | 0.66 | – | 0.39 | – | – | 0.76 | 1 | 0.9 | – | Growth Rate (Fibroblast; 0 h, replicate number 1): -0.63; Growth Rate (Fibroblast; 0 h, replicate number 2): -0.1; Growth Rate (U2OS; 0 h, replicate number 2): -0.42; Growth Rate (U2OS; 6 h, replicate number 2): 0.51; Growth Rate (U2OS; 18 h, replicate number 2): 0.82 |
| Cc1nnc2ccc(-c3cccc(C(F)(F)F)c3)nn12 [CI-218872] | – | 0.38 | -1 | -1 | 0.98 | – | – | – | – | – | 0.76 | 0.88 | – | 0.97 | 0.95 | – | 0.87 | 0.99 | – | 0.45 | Growth Rate (U2OS; 6 h, replicate number 2): 0.83; Growth Rate (U2OS; 18 h, replicate number 1): 0.84; Growth Rate (U2OS; 18 h, replicate number 2): 0.97 |
| O=C1CCCN1CCNc1nc(Nc2ccc(Cl)c(Cl)c2)ncc1C(F)(F)F | – | – | 0.95 | 0.62 | 0.41 | 0.65 | 0.48 | 0.64 | 0.45 | -1 | 0.32 | 0.24 | 0.37 | -0.87 | – | 0.78 | – | – | – | -1 | Growth Rate (HEK-293T; 18 h, replicate number 1): 0.89; Growth Rate (U2OS; 12 h, replicate number 2): -0.25; Growth Rate (U2OS; 18 h, replicate number 1): 0.25 |
| CCOC(=O)N1CCC(CN(Cc2ccc(Cl)cc2)Cc2ccc([N+](=O)[O-])s2)C1 (stereo not given) [SR9009] | 0.23 | 0.43 | – | 0.41 | 0.2 | 0.3 | 0.38 | 0.48 | 0.39 | -0.35 | – | 0.94 | – | – | 0.28 | 0.41 | 0.27 | 0.35 | – | – | Growth Rate (HEK-293T; 6 h, replicate number 1): 0.39; Growth Rate (HEK-293T; 12 h, replicate number 1): 0.42; Growth Rate (HEK-293T; 18 h, replicate number 1): 0.48 |
| CC(C)(C)C(=O)NCc1ccc(Cl)c(C(=O)Nc2ncc[nH]2)c1 [LY-3031207] | – | 0.85 | -0.3 | – | 0.86 | – | – | 0.89 | – | 0.65 | – | – | – | 0.13 | – | – | – | – | 0.94 | -0.13 | Growth Rate (Fibroblast; 0 h, replicate number 2): 0.1; Growth Rate (U2OS; 12 h, replicate number 2): 0.95; Growth Rate (U2OS; 18 h, replicate number 2): 0.97 |
| CN(C)C/C=C/C(=O)Nc1cc2c(Nc3ccc(F)c(Cl)c3)ncnc2cc1OC[C@@H]1CCCO1 | -0.55 | -0.42 | -0.39 | -0.37 | -0.36 | -0.32 | -0.29 | -0.26 | -0.29 | – | -0.2 | -0.23 | -0.17 | – | -0.29 | -0.2 | -0.34 | -0.22 | -0.19 | – | Growth Rate (HEK-293T; 6 h, replicate number 1): -0.57; Growth Rate (HEK-293T; 12 h, replicate number 1): -0.36; Growth Rate (HEK-293T; 18 h, replicate number 1): -0.27; Growth Rate (Fibroblast; 0 h, replicate number 2): 0.77; Growth Rate (U2OS; 0 h, replicate number 2): 0.7; Growth Rate (U2OS; 6 h, replicate number 2): -0.14; Growth Rate (U2OS; 12 h, replicate number 2): -0.07; Growth Rate (U2OS; 18 h, replicate number 1): -0.23; Growth Rate (U2OS; 18 h, replicate number 2): -0.08 |
| Cn1ncc(NC(=O)c2nc(-c3c(F)cccc3F)sc2N)c1N1CC[C@@H](N)[C@H](F)CC1 | – | – | – | – | – | – | – | – | – | -1 | – | – | – | -1 | – | – | – | 0.77 | 0.96 | -0.31 | Growth Rate (Fibroblast; 0 h, replicate number 1): -1 |
| Cn1c(C(=O)N[C@@H](CO)c2ccc(C(=O)O)cc2)cc2cc(Cl)ccc21 | – | – | -0.6 | – | 0.49 | – | 0.69 | 1 | 0.68 | 0.76 | 0.58 | – | 0.92 | – | – | 0.96 | – | – | – | 0.28 | Growth Rate (HEK-293T; 6 h, replicate number 1): 0.78; Growth Rate (Fibroblast; 0 h, replicate number 2): 0.3 |
| Cc1c(C(=O)NCCCN(C)C)sc2ncnc(Nc3ccc(F)cc3OC(C)CF)c12 (stereo not given) | 0.2 | -1 | – | – | – | – | 0.93 | – | 0.55 | – | – | – | – | – | 0.14 | 0.07 | 0.14 | 0.16 | – | – | Growth Rate (HEK-293T; 6 h, replicate number 1): -0.52; Growth Rate (HEK-293T; 12 h, replicate number 1): -0.29; Growth Rate (HEK-293T; 18 h, replicate number 1): -0.13; Growth Rate (U2OS; 0 h, replicate number 2): 0.69 |
| CN1CCN(c2ccc(Nc3ncc4cc5n(c4n3)C3(CCCCC3)CNC5=O)nc2)CC1 [TRILACICLIB] | – | – | – | – | – | – | – | – | – | 0.26 | 0.29 | – | 0.84 | -0.98 | – | – | – | 0.99 | 0.98 | – | Growth Rate (Fibroblast; 0 h, replicate number 1): -1; Growth Rate (U2OS; 18 h, replicate number 1): 0.92 |
